Earlier results, collected in patent US20020038007A1, “Method of finding agonist and antagonist to human 11cb splice variant” (priority 1996, published 2002).

Legend:
[1] = intracerebroventricular injection; Presse, F et al Neuroscience 1996
[2] = injection into lateral ventricles of rats

For “H-Asp-Phe-Asp-Met-Leu-Arg-Cys-Met-Leu-Gly-Arg-Val-Tyr-Arg-Pro-Cys-Trp-Gln-Val-OH (H-DFDMLRCMLGRVYRPCWQV-OH; cysteine pairing not given here) [MCH]”, the feeding [1] is given as “inhibit feeding” and the food consumption [2] is given as “increased food consumption”.
